Test results: patent US20020002171A1, “Materials and methods for killing nematodes and nematode eggs” (priority 2000, published 2002)

System: Caenorhabditis elegans
Assay: C. elegans L1 nematicidal dose response in 96-well plates, 5 day visual score (Example 2; same procedure for Example 7, Table 3)
Assay type: in vivo
Set-up: key to 5 Day Visual Score V1 / 5 Day Visual Score V2 / 5 Day Visual Score V3 / 5 Day Visual Score V4 / 5 Day Visual Score V6 / 5 Day Visual Score V5 / Initial HTS Run Visual Score / Follow-up HTS Run Visual Score: Dead: only stiff L1s (no movement); Dead (L4): worms are dead, but at a later larval stage; majority of worms are L1 (based on size) worms move when plate is tapped; majority of worms are L2 (based on size); majority of worms are L3 (based on size); majority of worms are L4 (based on size); AD: majority of worms are adult; #AD: 5 adult worms or less; B!: sterile (0-25 progeny); B: low broodsize (25-100 progeny); ˜B: moderate broodsize (100-250 progeny); <: reduced broodsize (250-500 progeny); OK: no effect (˜1000+ progeny)
Conditions: for 5 Day Visual Score V1 / 5 Day Visual Score V3 / 5 Day Visual Score V4 / 5 Day Visual Score V5 / 5 Day Visual Score V6 / 5 Day Visual Score V2: dose response
Summary of the method: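 L1 larvae, 20 per well in NGM with 1% E. coli HB101 and antibiotic/antimycotic, exposed to six 3-fold dilutions from 70 μM down to 0.3 μM (1.4% DMSO at top). Held at 20° C; viability scored visually under 100× dissecting microscope on day 5.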

| SMILES | Follow-up HTS Run % Run [%] | Follow-up HTS Run Visual Score | Follow-up HTS Run mOD [mOD] | Initial HTS Run % Run [%] | Initial HTS Run mOD [mOD] | 5 Day Visual Score V1 (dilution V1, day 5) | 5 Day Visual Score V3 (dilution V3, day 5) | 5 Day Visual Score V4 (dilution V4, day 5) | 5 Day Visual Score V5 (dilution V5, day 5) | 5 Day Visual Score V6 (dilution V6, day 5) | Initial HTS Run Visual Score | 5 Day Visual Score V2 (dilution V2, day 5) | 5 Day Visual Score V1 (dilution V1, 5 day) | 5 Day Visual Score V2 (dilution V2, 5 day) | 5 Day Visual Score V3 (dilution V3, 5 day) | 5 Day Visual Score V4 (dilution V4, 5 day) | 5 Day Visual Score V5 (dilution V5, 5 day) | 5 Day Visual Score V6 (dilution V6, 5 day) |
| --- | --- | --- | --- | --- | --- | --- | --- | --- | --- | --- | --- | --- | --- | --- | --- | --- | --- | --- |
| C=CCN(CC=C)c1nc(NCc2c(F)cccc2F)ns1 [compound 300] | 108 | L4/AD/B! | 174 | 108 | 119 | Dead(L2/L3) | < (reduced broodsize (250-500 progeny)) | OK (no effect (˜1000+ progeny)) | OK (no effect (˜1000+ progeny)) | OK (no effect (˜1000+ progeny)) | – | – | – | – | – | – | – | – |
| CN(Cc1ccccc1)c1nc(NCc2c(F)cccc2F)ns1 [compound 301] | 127 | B! (sterile (0-25 progeny)) | 204 | 111 | 122 | – | OK (no effect (˜1000+ progeny)) | OK (no effect (˜1000+ progeny)) | OK (no effect (˜1000+ progeny)) | OK (no effect (˜1000+ progeny)) | B!-Few Eggs | < (reduced broodsize (250-500 progeny)) | – | – | – | – | – | – |
| FC(F)(F)c1ccc(CNc2nsc(N3CCN(c4ncccn4)CC3)n2)cc1 [compound 303] | 111 | – | 178 | 96 | 106 | Dead | Dead | OK (no effect (˜1000+ progeny)) | < (reduced broodsize (250-500 progeny)) | – | L3 | L1 | – | – | – | – | – | – |
| Cc1cccc(C)c1N1CCN(c2nc(NCc3ccc(C(F)(F)F)cc3)ns2)CC1 [compound 304] | 107 | – | 172 | 96 | 106 | L1 | OK (no effect (˜1000+ progeny)) | OK (no effect (˜1000+ progeny)) | OK (no effect (˜1000+ progeny)) | < (reduced broodsize (250-500 progeny)) | L4/AD/B! | OK (no effect (˜1000+ progeny)) | – | – | – | – | – | – |
| CCN(c1nc(NCc2ccc(C(F)(F)F)cc2)ns1)C1CCCCC1 [compound 305] | 112 | L4 | 181 | 102 | 112 | – | OK (no effect (˜1000+ progeny)) | OK (no effect (˜1000+ progeny)) | OK (no effect (˜1000+ progeny)) | OK (no effect (˜1000+ progeny)) | – | < (reduced broodsize (250-500 progeny)) | – | – | – | – | – | – |
| CCCCCCCCCCCCCCCCCCN(C)c1nc(NCc2ccc(C(F)(F)F)cc2)ns1 [compound 306] | 102 | L1 | 165 | 107 | 118 | L1 | – | OK (no effect (˜1000+ progeny)) | OK (no effect (˜1000+ progeny)) | OK (no effect (˜1000+ progeny)) | – | L1 | – | – | – | – | – | – |
| CCCCC(CC)CN(CC(CC)CCCC)c1nc(NCc2ccc(C(F)(F)F)cc2)ns1 (stereo not drawn) [compound 307] | 110 | B! (sterile (0-25 progeny)) | 177 | 100 | 110 | Dead | OK (no effect (˜1000+ progeny)) | OK (no effect (˜1000+ progeny)) | OK (no effect (˜1000+ progeny)) | OK (no effect (˜1000+ progeny)) | L4/AD/B | – | – | – | – | – | – | – |
| CCCCN(CC)c1nc(NCc2ccc(C(F)(F)F)cc2)ns1 [compound 308] | 130 | – | 210 | 112 | 123 | L1 | #AD/˜B | OK (no effect (˜1000+ progeny)) | OK (no effect (˜1000+ progeny)) | OK (no effect (˜1000+ progeny)) | – | – | – | – | – | – | – | – |
| CCCCN(Cc1ccccc1)c1nc(NCc2ccc(C(F)(F)F)cc2)ns1 [compound 309] | 119 | – | 191 | 106 | 117 | L1 | OK (no effect (˜1000+ progeny)) | OK (no effect (˜1000+ progeny)) | OK (no effect (˜1000+ progeny)) | OK (no effect (˜1000+ progeny)) | L4/AD/B! | B (low broodsize (25-100 progeny)) | – | – | – | – | – | – |
| CCN(Cc1ccccc1)c1nc(NCc2ccc(C(F)(F)F)cc2)ns1 [compound 310] | 116 | – | 187 | 102 | 112 | – | – | – | – | – | – | – | Dead | B (low broodsize (25-100 progeny)) | ˜B (moderate broodsize (100-250 progeny)) | #AD/˜B | OK (no effect (˜1000+ progeny)) | OK (no effect (˜1000+ progeny)) |
| CC(C)CN(CC(C)C)c1nc(NCc2ccc(C(F)(F)F)cc2)ns1 [compound 311] | 109 | B! (sterile (0-25 progeny)) | 176 | 98 | 108 | – | – | – | – | – | L4/AD/B! | – | L1 | < (reduced broodsize (250-500 progeny)) | OK (no effect (˜1000+ progeny)) | OK (no effect (˜1000+ progeny)) | OK (no effect (˜1000+ progeny)) | OK (no effect (˜1000+ progeny)) |
| C=CCN(CC=C)c1nc(NCc2ccc(C(F)(F)F)cc2)ns1 [compound 312] | 115 | – | 185 | 104 | 114 | – | – | – | – | – | – | – | L1 | – | ˜B (moderate broodsize (100-250 progeny)) | OK (no effect (˜1000+ progeny)) | OK (no effect (˜1000+ progeny)) | OK (no effect (˜1000+ progeny)) |
| CCOC(=O)CCN(Cc1ccccc1)c1nc(NCc2ccc(C(F)(F)F)cc2)ns1 [compound 313] | 106 | – | 170 | 97 | 107 | – | – | – | – | – | L2 - (Dead L3) | – | Dead(L2/L3) | Dead(L3) | – | < (reduced broodsize (250-500 progeny)) | OK (no effect (˜1000+ progeny)) | OK (no effect (˜1000+ progeny)) |
| CN(CCc1ccccc1)c1nc(NCc2ccc(C(F)(F)F)cc2)ns1 [compound 314] | 103 | – | 166 | 106 | 117 | – | – | – | – | – | – | – | L1 | L4#AD/B! and L1 | L1 | – | – | OK (no effect (˜1000+ progeny)) |
| CN(Cc1ccccc1)c1nc(NCc2ccc(C(F)(F)F)cc2)ns1 [compound 315] | 118 | – | 190 | 112 | 123 | – | – | – | – | – | – | – | L1 | – | – | ˜B (moderate broodsize (100-250 progeny)) | OK (no effect (˜1000+ progeny)) | < (reduced broodsize (250-500 progeny)) |
| OCC1CCCN1c1nc(NCc2ccc(C(F)(F)F)cc2)ns1 (stereo not drawn) [compound 316] | 106 | L2 | 171 | 100 | 110 | – | – | – | – | – | Dead(L3) | – | Dead | Dead(L3) | ˜B (moderate broodsize (100-250 progeny)) | < (reduced broodsize (250-500 progeny)) | OK (no effect (˜1000+ progeny)) | OK (no effect (˜1000+ progeny)) |
